In the CheMixHub viscosity set:

Assay: xn = mol fraction of the nth substance listed

ClC(Cl)(Cl)Cl + COC(C)=O
303.15 K, 101.3 kPa
Details | viscosity [mPa·s]
x2 = 0.1004 | 0.763
x2 = 0.1926 | 0.7035
x2 = 0.2864 | 0.6472
x2 = 0.4018 | 0.587
x2 = 0.5025 | 0.5405
x2 = 0.6004 | 0.5006
x2 = 0.7001 | 0.4608
x2 = 0.8964 | 0.3807

ClC(Cl)(Cl)Cl + ClC(Cl)Cl
Details | viscosity [mPa·s]
293.15 K, 101.33 kPa, x1 = 0.2087 | 0.6645
293.15 K, 101.33 kPa, x1 = 0.517 | 0.7319
293.15 K, 101.33 kPa, x1 = 0.9083 | 0.9238
298.15 K, 101 kPa, x1 = 0.1566 | 0.569
298.15 K, 101 kPa, x1 = 0.5099 | 0.659
298.15 K, 101 kPa, x1 = 0.7699 | 0.761
298.15 K, 101 kPa, x2 = 0.2298 | 0.761
298.15 K, 101 kPa, x2 = 0.51 | 0.659
298.15 K, 101 kPa, x2 = 0.8437 | 0.569
298.15 K, 101.33 kPa, x1 = 0.2087 | 0.6296
298.15 K, 101.33 kPa, x1 = 0.517 | 0.6888
298.15 K, 101.33 kPa, x1 = 0.9083 | 0.8561
298.16 K, 101 kPa, x2 = 0.151 | 0.816
298.16 K, 101 kPa, x2 = 0.328 | 0.732
298.16 K, 101 kPa, x2 = 0.61 | 0.633
298.16 K, 101 kPa, x2 = 0.803 | 0.583
303.15 K, 101.3 kPa, x1 = 0.502 | 0.6248
303.15 K, 101.33 kPa, x1 = 0.2087 | 0.5964
303.15 K, 101.33 kPa, x1 = 0.517 | 0.6543
303.15 K, 101.33 kPa, x1 = 0.9083 | 0.8041
308.15 K, 101.33 kPa, x1 = 0.2087 | 0.5644
308.15 K, 101.33 kPa, x1 = 0.517 | 0.6241
308.15 K, 101.33 kPa, x1 = 0.9083 | 0.7523
313.15 K, 101.33 kPa, x1 = 0.2087 | 0.5501
313.15 K, 101.33 kPa, x1 = 0.517 | 0.5928
313.15 K, 101.33 kPa, x1 = 0.9083 | 0.7143
318.15 K, 101.33 kPa, x1 = 0.2087 | 0.523
318.15 K, 101.33 kPa, x1 = 0.517 | 0.5657
318.15 K, 101.33 kPa, x1 = 0.9083 | 0.6686
323.15 K, 101.33 kPa, x1 = 0.2087 | 0.5032
323.15 K, 101.33 kPa, x1 = 0.517 | 0.5444
323.15 K, 101.33 kPa, x1 = 0.9083 | 0.6335

CCN(CC)CC + c1ccccc1
303.15 K, 101 kPa
Details | viscosity [mPa·s]
x1 = 0.01024 | 0.5567
x1 = 0.02091 | 0.5513
x1 = 0.03113 | 0.545
x1 = 0.03955 | 0.5386
x1 = 0.05006 | 0.5341
x1 = 0.06182 | 0.5287
x1 = 0.07124 | 0.5215
x1 = 0.08041 | 0.5162
x1 = 0.09192 | 0.5096
x1 = 0.09995 | 0.5041

ClC(Cl)(Cl)Cl + CC(=O)O
Details | viscosity [mPa·s]
298.15 K, 101 kPa, x2 = 0.1 | 0.84
298.15 K, 101 kPa, x2 = 0.22 | 0.822
298.15 K, 101 kPa, x2 = 0.31 | 0.811
298.15 K, 101 kPa, x2 = 0.39 | 0.808
298.15 K, 101 kPa, x2 = 0.63 | 0.832
298.15 K, 101 kPa, x2 = 0.72 | 0.863
298.15 K, 101 kPa, x2 = 0.79 | 0.9
298.15 K, 101 kPa, x2 = 0.91 | 1.007
298.15 K, 101.33 kPa, x2 = 0.214 | 0.82
298.15 K, 101.33 kPa, x2 = 0.418 | 0.804
298.15 K, 101.33 kPa, x2 = 0.608 | 0.816
298.15 K, 101.33 kPa, x2 = 0.805 | 0.92
303.15 K, 101 kPa, x1 = 0.0697 | 1.071
303.15 K, 101 kPa, x1 = 0.2172 | 0.995
303.15 K, 101 kPa, x1 = 0.7482 | 0.894
313.15 K, 101 kPa, x1 = 0.0697 | 0.982
313.15 K, 101 kPa, x1 = 0.2172 | 0.876
313.15 K, 101 kPa, x1 = 0.7482 | 0.791
323.15 K, 101 kPa, x1 = 0.0697 | 0.917
323.15 K, 101 kPa, x1 = 0.2172 | 0.804
323.15 K, 101 kPa, x1 = 0.7482 | 0.697

CCCC(C)=O + CCCCN(CCCC)CCCC
viscosity [mPa·s], 101 kPa
Details | 298.15 K | 303.15 K | 308.15 K
x2 = 0.0499 | 0.49 | 0.465 | 0.436
x2 = 0.1 | 0.521 | 0.49 | 0.462
x2 = 0.1499 | 0.554 | 0.521 | 0.491
x2 = 0.2 | 0.588 | 0.551 | 0.519
x2 = 0.2498 | 0.624 | 0.584 | 0.547
x2 = 0.3 | 0.66 | 0.614 | 0.575
x2 = 0.3999 | 0.735 | 0.681 | 0.636
x2 = 0.4997 | 0.81 | 0.75 | 0.698
x2 = 0.5997 | 0.889 | 0.821 | 0.764
x2 = 0.7002 | 0.974 | 0.898 | 0.832
x2 = 0.7997 | 1.065 | 0.977 | 0.902
x2 = 0.8463 | 1.108 | 1.02 | 0.936
x2 = 0.899 | 1.165 | 1.064 | 0.979
x2 = 0.956 | 1.227 | 1.118 | 1.025

ClC(Cl)(Cl)Cl + O=S1(=O)CCCC1
viscosity [mPa·s], 101.33 kPa
Details | 303.15 K | 313.15 K | 323.15 K
x2 = 0.066 | 1.002 | 0.8675 | 0.7607
x2 = 0.1374 | 1.243 | 1.062 | 0.9177
x2 = 0.2048 | 1.532 | 1.286 | 1.098
x2 = 0.3138 | 2.043 | 1.691 | 1.425
x2 = 0.3838 | 2.392 | 1.974 | 1.658
x2 = 0.4188 | 2.589 | 2.133 | 1.79
x2 = 0.4879 | 3.046 | 2.498 | 2.082
x2 = 0.5667 | 3.682 | 2.982 | 2.47
x2 = 0.6334 | 4.338 | 3.481 | 2.855
x2 = 0.705 | 5.162 | 4.107 | 3.348
x2 = 0.7743 | 6.124 | 4.817 | 3.9
x2 = 0.8473 | 7.286 | 5.711 | 4.571
x2 = 0.8955 | 8.168 | 6.367 | 5.053

CCCOC(C)=O + CCCCOC(C)=O
viscosity [mPa·s], 101 kPa
Details | x1 = 0.2 | x1 = 0.4 | x1 = 0.6 | x1 = 0.8
293.15 K | 0.697 | 0.67 | 0.644 | 0.618
313.15 K | 0.538 | 0.519 | 0.5 | 0.481
